Results: ChEMBL document CHEMBL2406977, “The discovery of PLK4 inhibitors: (E)-3-((1H-Indazol-6-yl)methylene)indolin-2-ones as novel antiproliferative agents” (J Med Chem, 2013)
pIC50: −log10 of the molar value.

Tests used:
[1] = target: T1, Serine/threonine-protein kinase PLK4 (Homo sapiens, UniProt O00444); test: Inhibition of N-terminal GST-tagged human PLK4 (1 to 391 amino acids) expressed in Escherichia coli using TMB as substrate after 30 mins by indirect ELISA assay
T1 sequence (O00444 whole entry): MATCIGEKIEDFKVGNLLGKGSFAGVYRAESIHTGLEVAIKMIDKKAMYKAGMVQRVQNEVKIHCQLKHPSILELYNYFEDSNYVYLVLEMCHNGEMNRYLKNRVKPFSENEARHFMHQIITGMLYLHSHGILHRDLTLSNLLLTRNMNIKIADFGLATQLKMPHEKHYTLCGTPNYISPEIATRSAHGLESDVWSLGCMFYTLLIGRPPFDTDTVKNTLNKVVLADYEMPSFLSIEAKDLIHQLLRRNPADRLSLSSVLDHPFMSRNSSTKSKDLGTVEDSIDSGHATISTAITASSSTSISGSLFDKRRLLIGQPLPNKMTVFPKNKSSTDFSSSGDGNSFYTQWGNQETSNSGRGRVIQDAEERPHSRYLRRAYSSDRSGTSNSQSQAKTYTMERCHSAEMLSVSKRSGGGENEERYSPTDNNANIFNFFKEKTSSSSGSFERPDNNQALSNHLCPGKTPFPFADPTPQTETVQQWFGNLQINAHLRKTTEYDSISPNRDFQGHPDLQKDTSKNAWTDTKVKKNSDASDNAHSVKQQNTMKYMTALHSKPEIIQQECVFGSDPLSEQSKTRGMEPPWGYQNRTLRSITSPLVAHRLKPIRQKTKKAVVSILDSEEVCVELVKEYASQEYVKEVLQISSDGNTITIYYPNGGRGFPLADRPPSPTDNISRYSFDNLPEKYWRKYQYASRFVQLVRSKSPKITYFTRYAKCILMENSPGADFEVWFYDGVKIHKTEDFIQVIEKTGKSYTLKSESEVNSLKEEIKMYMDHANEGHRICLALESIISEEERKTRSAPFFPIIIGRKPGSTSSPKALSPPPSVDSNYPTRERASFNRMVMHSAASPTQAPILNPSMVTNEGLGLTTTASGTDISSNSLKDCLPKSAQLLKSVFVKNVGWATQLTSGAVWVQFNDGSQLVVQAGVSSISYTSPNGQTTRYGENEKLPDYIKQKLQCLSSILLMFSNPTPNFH

[2] = target: Serine/threonine-protein kinase PLK3 (Homo sapiens, UniProt Q9H4B4); test: Inhibition of PLK3 (unknown origin) by FRET-based homogeneous assay
Chain of Serine/threonine-protein kinase PLK3 (Q9H4B4 whole entry): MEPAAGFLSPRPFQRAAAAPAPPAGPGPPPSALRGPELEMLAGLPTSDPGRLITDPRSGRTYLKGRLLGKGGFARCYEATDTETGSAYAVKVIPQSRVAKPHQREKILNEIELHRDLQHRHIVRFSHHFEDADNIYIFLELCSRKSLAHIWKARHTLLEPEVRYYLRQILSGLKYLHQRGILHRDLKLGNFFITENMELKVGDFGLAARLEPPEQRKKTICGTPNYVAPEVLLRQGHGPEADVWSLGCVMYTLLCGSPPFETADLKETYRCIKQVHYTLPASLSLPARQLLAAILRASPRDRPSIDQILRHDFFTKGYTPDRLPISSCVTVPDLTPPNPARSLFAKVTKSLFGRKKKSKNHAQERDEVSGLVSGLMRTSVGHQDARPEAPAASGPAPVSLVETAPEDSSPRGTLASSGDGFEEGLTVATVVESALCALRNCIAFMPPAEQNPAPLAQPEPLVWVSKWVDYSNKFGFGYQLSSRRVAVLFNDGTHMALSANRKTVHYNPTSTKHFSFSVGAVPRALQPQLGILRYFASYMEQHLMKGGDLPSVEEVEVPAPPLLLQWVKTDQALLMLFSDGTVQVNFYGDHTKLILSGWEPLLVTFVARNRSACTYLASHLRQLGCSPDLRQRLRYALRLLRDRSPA

[3] = target: Serine/threonine-protein kinase PLK2 (Homo sapiens, UniProt Q9NYY3); test: Inhibition of PLK2 (unknown origin) by FRET-based homogeneous assay
Chain of Serine/threonine-protein kinase PLK2 (Q9NYY3 whole entry): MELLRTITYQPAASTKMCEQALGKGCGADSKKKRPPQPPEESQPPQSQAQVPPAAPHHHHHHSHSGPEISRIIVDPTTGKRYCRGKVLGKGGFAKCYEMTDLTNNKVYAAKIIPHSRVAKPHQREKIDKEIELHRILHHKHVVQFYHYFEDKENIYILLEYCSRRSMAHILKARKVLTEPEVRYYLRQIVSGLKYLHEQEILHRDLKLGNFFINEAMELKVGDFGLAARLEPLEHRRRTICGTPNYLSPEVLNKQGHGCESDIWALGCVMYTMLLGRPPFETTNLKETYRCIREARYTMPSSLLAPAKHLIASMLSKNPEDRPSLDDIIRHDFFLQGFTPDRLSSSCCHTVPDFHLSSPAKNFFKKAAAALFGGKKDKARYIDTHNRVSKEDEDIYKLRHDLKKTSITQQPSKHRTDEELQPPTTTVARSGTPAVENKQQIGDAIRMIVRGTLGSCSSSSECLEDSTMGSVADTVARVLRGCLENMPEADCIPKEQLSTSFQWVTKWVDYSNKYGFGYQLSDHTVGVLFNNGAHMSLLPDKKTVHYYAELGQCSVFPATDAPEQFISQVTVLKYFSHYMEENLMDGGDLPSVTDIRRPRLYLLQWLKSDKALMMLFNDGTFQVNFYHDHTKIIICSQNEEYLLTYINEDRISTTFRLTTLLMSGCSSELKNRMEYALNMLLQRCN

[4] = target: Serine/threonine-protein kinase PLK1 (Homo sapiens, UniProt P53350); test: Inhibition of PLK1 (unknown origin) by FRET-based homogeneous assay
Chain of Serine/threonine-protein kinase PLK1 (P53350 whole entry): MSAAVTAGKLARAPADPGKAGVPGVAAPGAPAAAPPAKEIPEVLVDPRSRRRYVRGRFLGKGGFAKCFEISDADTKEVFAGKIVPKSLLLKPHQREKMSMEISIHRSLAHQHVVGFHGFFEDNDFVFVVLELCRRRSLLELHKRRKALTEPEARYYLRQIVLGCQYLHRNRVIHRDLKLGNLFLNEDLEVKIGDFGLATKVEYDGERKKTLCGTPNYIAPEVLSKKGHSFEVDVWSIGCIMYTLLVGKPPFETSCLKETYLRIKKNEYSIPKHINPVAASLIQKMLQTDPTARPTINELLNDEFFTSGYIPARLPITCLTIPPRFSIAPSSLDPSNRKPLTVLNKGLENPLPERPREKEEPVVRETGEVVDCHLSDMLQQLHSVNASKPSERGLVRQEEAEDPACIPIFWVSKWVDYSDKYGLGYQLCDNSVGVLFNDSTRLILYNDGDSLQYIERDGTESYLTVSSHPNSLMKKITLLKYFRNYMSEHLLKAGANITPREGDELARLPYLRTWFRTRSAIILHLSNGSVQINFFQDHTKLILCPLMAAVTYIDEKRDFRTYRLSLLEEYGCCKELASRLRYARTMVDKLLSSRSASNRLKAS

[5] = Permeability of the compound at pH 7.4 by PAMPA; assay type: ADME; conditions: read-out: permeability
Cytochrome P450 1A2 = target: T2, Cytochrome P450 1A2 (Homo sapiens, UniProt P05177); test: Inhibition of CYP1A2 (unknown origin) using CEC as substrate after 15 mins by fluorescence assay; assay type: ADME
T2 sequence (P05177 whole entry): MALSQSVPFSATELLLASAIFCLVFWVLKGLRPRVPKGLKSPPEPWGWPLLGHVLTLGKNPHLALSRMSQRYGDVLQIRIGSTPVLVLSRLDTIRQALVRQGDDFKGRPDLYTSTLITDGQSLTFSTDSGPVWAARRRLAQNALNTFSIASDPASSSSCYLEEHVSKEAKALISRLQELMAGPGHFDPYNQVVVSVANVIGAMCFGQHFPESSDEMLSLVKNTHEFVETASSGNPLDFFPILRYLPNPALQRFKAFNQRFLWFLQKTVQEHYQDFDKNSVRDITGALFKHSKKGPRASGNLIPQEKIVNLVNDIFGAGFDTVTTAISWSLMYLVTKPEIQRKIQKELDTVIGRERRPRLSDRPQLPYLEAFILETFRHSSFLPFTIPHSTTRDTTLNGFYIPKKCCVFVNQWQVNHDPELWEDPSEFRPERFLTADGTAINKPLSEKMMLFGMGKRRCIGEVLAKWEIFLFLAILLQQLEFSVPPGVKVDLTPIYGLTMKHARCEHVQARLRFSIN

Cytochrome P450 2D6 = Cytochrome P450 2D6 (Homo sapiens, UniProt P10635); test: Inhibition of CYP2D6 (unknown origin) using AMMC as substrate after 30 mins by fluorescence assay; assay type: ADME
Chain of Cytochrome P450 2D6 (P10635 whole entry): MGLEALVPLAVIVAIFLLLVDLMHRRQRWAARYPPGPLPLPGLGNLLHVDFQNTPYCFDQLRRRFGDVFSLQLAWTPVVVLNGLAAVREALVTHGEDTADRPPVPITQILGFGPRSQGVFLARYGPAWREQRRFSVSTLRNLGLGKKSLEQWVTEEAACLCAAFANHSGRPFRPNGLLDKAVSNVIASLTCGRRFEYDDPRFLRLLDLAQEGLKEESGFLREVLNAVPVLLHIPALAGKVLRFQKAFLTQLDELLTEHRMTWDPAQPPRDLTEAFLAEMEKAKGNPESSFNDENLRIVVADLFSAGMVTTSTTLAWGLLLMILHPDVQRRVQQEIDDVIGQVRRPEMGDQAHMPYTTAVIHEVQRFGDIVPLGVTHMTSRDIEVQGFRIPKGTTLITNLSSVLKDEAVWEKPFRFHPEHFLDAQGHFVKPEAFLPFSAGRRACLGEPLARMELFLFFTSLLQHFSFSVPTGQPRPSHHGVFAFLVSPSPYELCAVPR

Cytochrome P450 3A4 = Cytochrome P450 3A4 (Homo sapiens, UniProt P08684); test: Inhibition of CYP3A4 (unknown origin) after 10 mins by fluorescence assay; assay type: ADME
Chain of Cytochrome P450 3A4 (P08684 whole entry): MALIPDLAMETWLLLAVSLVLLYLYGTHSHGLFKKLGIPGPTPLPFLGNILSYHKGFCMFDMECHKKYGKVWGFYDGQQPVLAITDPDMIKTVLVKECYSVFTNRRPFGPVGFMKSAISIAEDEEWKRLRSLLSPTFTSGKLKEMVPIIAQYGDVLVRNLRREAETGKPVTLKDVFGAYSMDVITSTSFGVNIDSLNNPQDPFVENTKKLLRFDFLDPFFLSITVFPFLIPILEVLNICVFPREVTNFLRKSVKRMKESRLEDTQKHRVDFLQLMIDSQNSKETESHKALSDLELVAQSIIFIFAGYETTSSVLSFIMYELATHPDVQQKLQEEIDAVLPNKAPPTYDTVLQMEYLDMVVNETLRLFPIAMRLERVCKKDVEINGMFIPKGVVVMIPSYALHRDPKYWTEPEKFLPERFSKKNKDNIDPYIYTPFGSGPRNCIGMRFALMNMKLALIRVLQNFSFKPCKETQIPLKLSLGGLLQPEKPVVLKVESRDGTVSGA

Cytochrome P450 2C19 = Cytochrome P450 2C19 (Homo sapiens, UniProt P33261); test: Inhibition of CYP2C19 (unknown origin) using MFC as substrate after 30 mins by fluorescence assay; assay type: ADME
Chain of Cytochrome P450 2C19 (P33261 whole entry): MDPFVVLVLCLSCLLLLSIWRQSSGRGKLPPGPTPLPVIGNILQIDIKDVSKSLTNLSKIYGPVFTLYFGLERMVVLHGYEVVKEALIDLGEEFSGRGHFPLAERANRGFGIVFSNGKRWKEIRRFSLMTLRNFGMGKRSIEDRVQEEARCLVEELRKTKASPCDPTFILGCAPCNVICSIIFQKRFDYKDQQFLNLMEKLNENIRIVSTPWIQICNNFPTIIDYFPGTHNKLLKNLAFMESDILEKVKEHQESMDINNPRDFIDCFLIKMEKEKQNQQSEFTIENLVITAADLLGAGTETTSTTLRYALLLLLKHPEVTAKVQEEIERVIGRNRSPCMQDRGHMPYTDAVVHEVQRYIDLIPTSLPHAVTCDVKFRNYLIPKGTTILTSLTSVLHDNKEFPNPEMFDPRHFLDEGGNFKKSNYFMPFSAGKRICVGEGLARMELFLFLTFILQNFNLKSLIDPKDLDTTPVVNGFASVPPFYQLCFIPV

MCF7 = test: Antiproliferative activity against human MCF7 cells assessed as growth inhibition after 5 days by SRB assay; assay type: functional; conditions: MCF7, 120 h
MDA-MB-468 = test: Antiproliferative activity against human MDA-MB-468 cells assessed as growth inhibition after 5 days by SRB assay; assay type: functional; conditions: MDA-MB-468, 120 h
HCC1954 = test: Antiproliferative activity against human HCC1954 cells assessed as growth inhibition after 5 days by SRB assay; assay type: functional; conditions: HCC1954, 120 h
Cytochrome P450 2C9 = Cytochrome P450 2C9 (Homo sapiens, UniProt P11712); test: Inhibition of CYP2C9 (unknown origin) using MFC as substrate after 45 mins by fluorescence assay; assay type: ADME
Chain of Cytochrome P450 2C9 (P11712 whole entry): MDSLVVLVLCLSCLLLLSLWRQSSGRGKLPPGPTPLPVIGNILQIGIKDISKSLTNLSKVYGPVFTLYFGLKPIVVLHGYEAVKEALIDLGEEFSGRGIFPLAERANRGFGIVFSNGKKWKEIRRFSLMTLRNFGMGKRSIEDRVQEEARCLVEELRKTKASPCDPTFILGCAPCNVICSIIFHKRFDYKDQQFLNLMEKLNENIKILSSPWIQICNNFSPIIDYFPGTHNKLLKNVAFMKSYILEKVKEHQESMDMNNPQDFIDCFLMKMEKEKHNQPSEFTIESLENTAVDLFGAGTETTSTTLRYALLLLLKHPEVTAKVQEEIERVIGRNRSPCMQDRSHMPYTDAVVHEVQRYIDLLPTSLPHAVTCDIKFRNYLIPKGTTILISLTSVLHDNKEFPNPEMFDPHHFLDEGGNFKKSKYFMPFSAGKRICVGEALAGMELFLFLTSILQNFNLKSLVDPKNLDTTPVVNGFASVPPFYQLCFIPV

MDA-MB-231 = test: Antiproliferative activity against human MDA-MB-231 cells assessed as growth inhibition after 5 days by SRB assay; assay type: functional; conditions: MDA-MB-231, 120 h
SK-BR-3 = test: Antiproliferative activity against human SKBR3 cells assessed as growth inhibition after 5 days by SRB assay; assay type: functional; conditions: SK-BR-3, 120 h

SMILES	pIC50 [1]	pIC50 [2]	pIC50 [3]	pIC50 [4]	Papp [5]	pIC50 (Cytochrome P450 1A2)	pIC50 (Cytochrome P450 2D6)	pIC50 (Cytochrome P450 3A4)	pIC50 (Cytochrome P450 2C19)	GI50 (MCF7)	GI50 (MDA-MB-468)	GI50 (HCC1954)	pIC50 (Cytochrome P450 2C9)	GI50 (MDA-MB-231)	GI50 (SK-BR-3)
CN(C)Cc1ccc(/C=C/c2n[nH]c3cc(/C=C4/C(=O)Nc5ccccc54)ccc23)cc1	8.70	< 5.00	< 5.00	< 5.00	276 ×10⁻⁶ cm/s	< 5.00	5.05	5.00	6.00	0.01 µM	0.01 µM	0.48 µM	5.89	0.002 µM	1.9 µM
O=C1Nc2ccccc2/C1=C\c1ccc2c(/C=C/c3ccccc3)n[nH]c2c1	7.38	< 5.00	< 5.00	< 5.00	–	–	–	–	–	5.2 µM	4.4 µM	–	–	> 50 µM	12 µM
COc1ccc2c(c1)/C(=C\c1ccc3c(/C=C/c4ccc(CN(C)C)cc4)n[nH]c3c1)C(=O)N2	9.49	< 5.00	< 5.00	< 5.00	–	–	–	–	–	< 0.01 µM	0.03 µM	1.4 µM	–	0.01 µM	0.03 µM
O=C1Nc2ccccc2/C1=C\c1ccc2c(/C=C/c3ccc(C(=O)O)cc3)n[nH]c2c1	9.09	< 5.00	< 5.00	< 5.00	2.1 ×10⁻⁶ cm/s	–	–	–	–	6.8 µM	0.8 µM	2 µM	–	> 50 µM	16 µM
COc1ccc2c(c1)/C(=C\c1ccc3c(/C=C/c4ccncc4)n[nH]c3c1)C(=O)N2	9.35	< 5.00	< 5.00	< 5.00	–	–	–	–	–	0.04 µM	0.14 µM	3.1 µM	–	21 µM	–
O=C1Nc2ccccc2/C1=C/c1cccc(O)c1	6.07	–	–	4.60	–	–	–	–	–	–	–	–	–	–	–
O=C1Nc2ccc(O)cc2/C1=C\c1ccc2c(/C=C/c3ccncc3)n[nH]c2c1	9.05	< 5.00	< 5.00	< 5.00	4 ×10⁻⁶ cm/s	–	–	–	–	> 50 µM	0.73 µM	> 50 µM	–	–	> 50 µM
O=C1Nc2ccccc2/C1=C\c1ccc2c(/C=C/c3cccnc3)n[nH]c2c1	8.70	< 5.00	< 5.00	< 5.00	–	–	–	–	–	0.28 µM	0.29 µM	12 µM	–	> 50 µM	> 50 µM

Continued, values first:

pIC50 [1]	pIC50 [2]	pIC50 [3]	pIC50 [4]	Papp [5]	pIC50 (Cytochrome P450 1A2)	pIC50 (Cytochrome P450 2D6)	pIC50 (Cytochrome P450 3A4)	pIC50 (Cytochrome P450 2C19)	GI50 (MCF7)	GI50 (MDA-MB-468)	GI50 (HCC1954)	pIC50 (Cytochrome P450 2C9)	GI50 (MDA-MB-231)	GI50 (SK-BR-3)	SMILES
5.89	< 5.00	< 5.00	4.59	–	–	–	–	–	–	–	–	–	–	–	O=C1Nc2cc(Cl)ccc2/C1=C\c1ccc2cn[nH]c2c1
8.80	< 5.00	< 5.00	< 5.00	–	–	–	–	–	1.7 µM	0.09 µM	33 µM	–	> 50 µM	13 µM	CCc1ccc2c(c1)/C(=C\c1ccc3c(/C=C/c4cccnc4)n[nH]c3c1)C(=O)N2
6.41	4.96	5.72	4.70	–	–	–	–	–	–	–	–	–	–	–	O=C1Nc2ccccc2/C1=C/c1ccc2[nH]ncc2c1
7.33	> 5.00	> 5.00	5.00	–	–	–	–	–	–	–	–	–	–	–	COc1ccc2c(c1)/C(=C\c1ccc3cn[nH]c3c1)C(=O)N2
5.92	< 5.00	5.00	< 5.00	–	–	–	–	–	–	–	–	–	–	–	CC(=O)Nc1ccc2c(c1)NC(=O)/C2=C/c1ccc2cn[nH]c2c1
7.27	< 5.00	< 5.00	< 5.00	–	–	–	–	–	–	–	–	–	–	–	O=C1Nc2ccc(Cl)cc2/C1=C\c1ccc2cn[nH]c2c1
6.62	4.62	< 5.00	4.82	–	–	–	–	–	–	–	–	–	–	–	O=C1Nc2ccc(F)cc2/C1=C/c1ccc2cn[nH]c2c1
5.20	< 5.00	5.00	< 5.00	–	–	–	–	–	–	–	–	–	–	–	CC(=O)Nc1ccc2c(c1)/C(=C\c1ccc3cn[nH]c3c1)C(=O)N2
